Patent US20260116874A1, “HETEROAROMATIC INDOLESULFONAMIDES” (SEED Therapeutics, Inc., priority 2023, published 2026)
Where two headings read alike, the source gives them in different places.

Legend:
[1] = target: human ether-a-go-go related gene (hERG) channel (Homo sapiens, UniProt Q12809); test: hERG inhibition assay (SyncroPatch automated patch clamp)
Description: Inhibition of compounds on human ether-a-go-go related gene (hERG) channel was evaluated using a SyncroPatch 3848/384 automated patch clamp system. The SynchroPatch system is an independent method of measuring ion flux through ion channel proteins by measuring currents induced by ion flux into and out of the cell.
CHO herg-DUO cells stably expressing hERG channel were cultured in a medium containing F12 (HAM) medium, 10% FBS, 100 μg/mL penicillin-streptomycin, […] hygromycin and 100 µg/mL G418. Cells were split using TrypLE™ Express about three times a week, and maintained at about 80% confluence.
Compounds were prepared as a 50 mM stock solution in DMSO. The stock solution of each compound was serially diluted with DMSO to prepare 30 mM, 10 mM, 3.3 mM and 1.1 mM solutions. Working solutions 60 μM, 20 μM, 6.6 μM and 2.22 μM were prepared by 500-fold dilution of the […], 30 mM, 10 mM, 3.3 mM and 1.1 mM solutions, respectively using extracellular NMDG60 solution (80 mM NaCl, 60 mM N-methyl-d-glucamine, 4 mM KCl, 2 mM CaCl2, 1 mM MgCl2, 5 mM D-glucose and 10 mM HEPES).
Cells were harvested and added to SyncroPatch 384 chip (Nanion Technologies) and washed four times. Following establishment of the whole-cell voltage clamp configuration, cells were set to a holding potential of −90 mV for measured for 500 ms and currents were at 500 Hz and filtered at 3 kHz. The hERG current was elicited by depolarizing the membrane to +30 mV for 4.8 sec and the voltage was then taken back to −50 mV for 5.2 sec to remove the inactivation and measure the deactivating tail current for a sample interval of 15 s. The maximum amount of tail current size was used to determine hERG current amplitude. hERG current in the presence of test compounds was recorded for at least 5 min to reach a steady state and then 5 sweeps were captured. If a steady state was not reached within 10 minutes, the average peak current of the last 5 sweeps was substituted for the steady state value.

[2] = Liver microsomes stability, mouse; type: in vitro ADME
Description: A 100 μM test compound solution and PC solution (verapamil) was prepared by adding 2 μL of 10 mM stock solution in DMSO to 198 μL of 50% acetonitrile/50% water.
Two separate experiments were performed as follows:
a) With Cofactors (NADPH): 25 μL of 10 mM NADPH was added to the incubations. The final concentrations of microsomes and NADPH were 0.5 mg/mL and 1 mM, respectively.
b) Without Cofactors (NADPH): 25 μL of 100 mM Phosphate buffer was added to the incubations. The final concentration of microsomes was 0.5 mg/mL. The mixture was pre-warmed at 37° C. for 10 minutes.
The reaction was started with the addition of 2.5 μL of 100 µM control compound or test compound solutions. Verapamil was used as positive control in this study. The final concentration of test compound or control compound was 1 μM. The incubation solution was incubated in a water bath at 37° C.
Aliquots of 30 μL were taken from the reaction solution at 0.5, 15, 30, 45 and 60 minutes. The reaction was stopped by the addition of 5 volumes of cold acetonitrile with IS (100 nM alprazolam, 200 nM caffeine and 100 nM tolbutamide).
Samples were then centrifuged at 3,220 g for 40 minutes. An aliquot of 100 μL of the supernatant was mixed with 100 μL of ultra-pure H2O and then used for LC-MS/MS analysis.
Single dose PK parameters were also determined for Compound 143, a deuterated derivative of Compound 1, according to the methods described herein. […] Metabolic stability was assessed by measuring the half-life of the test compounds in human and mouse liver microsomes.

[3] = Table 6, read-out: Metabolic Stability Half-life, Mouse
[4] = 1 μM, Table 3, read-out: Metabolic Stability Half-life, mouse

human ether-a-go-go related gene (hERG) channel, sequence (Q12809 whole entry): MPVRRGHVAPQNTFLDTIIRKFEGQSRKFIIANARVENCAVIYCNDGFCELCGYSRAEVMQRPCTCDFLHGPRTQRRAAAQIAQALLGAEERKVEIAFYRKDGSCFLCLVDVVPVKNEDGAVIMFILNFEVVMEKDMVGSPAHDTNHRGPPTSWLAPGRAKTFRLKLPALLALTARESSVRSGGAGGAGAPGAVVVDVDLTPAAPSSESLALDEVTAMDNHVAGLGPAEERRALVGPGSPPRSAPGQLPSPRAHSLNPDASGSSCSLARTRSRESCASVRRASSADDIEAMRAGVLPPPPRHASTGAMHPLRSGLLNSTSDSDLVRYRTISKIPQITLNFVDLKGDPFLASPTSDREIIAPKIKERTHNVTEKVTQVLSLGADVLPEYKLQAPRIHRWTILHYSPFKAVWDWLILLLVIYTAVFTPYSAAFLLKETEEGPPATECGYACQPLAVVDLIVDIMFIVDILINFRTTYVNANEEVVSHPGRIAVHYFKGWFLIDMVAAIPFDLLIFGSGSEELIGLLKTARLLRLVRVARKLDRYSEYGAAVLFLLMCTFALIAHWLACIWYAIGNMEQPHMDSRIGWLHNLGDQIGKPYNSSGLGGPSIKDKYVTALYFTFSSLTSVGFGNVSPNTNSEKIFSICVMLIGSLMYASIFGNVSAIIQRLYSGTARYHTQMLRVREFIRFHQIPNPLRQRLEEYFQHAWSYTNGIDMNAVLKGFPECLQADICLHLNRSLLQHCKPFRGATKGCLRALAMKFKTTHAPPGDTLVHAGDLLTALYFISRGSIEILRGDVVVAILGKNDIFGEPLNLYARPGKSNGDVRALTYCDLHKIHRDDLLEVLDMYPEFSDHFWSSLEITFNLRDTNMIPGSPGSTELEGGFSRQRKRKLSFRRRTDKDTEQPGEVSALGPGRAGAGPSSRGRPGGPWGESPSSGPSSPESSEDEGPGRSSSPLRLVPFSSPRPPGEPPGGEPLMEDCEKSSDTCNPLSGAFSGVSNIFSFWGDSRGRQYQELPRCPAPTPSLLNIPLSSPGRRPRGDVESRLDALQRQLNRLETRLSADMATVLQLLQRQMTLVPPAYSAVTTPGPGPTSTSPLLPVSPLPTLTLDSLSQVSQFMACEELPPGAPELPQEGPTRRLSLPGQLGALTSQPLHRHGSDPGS

Compound | IC50 [1] [µM] | hERG inhibition compared to E7820 [1] | half-life at 1 µM [2, 3] [min] | half-life at 1 µM [2, 4] [min]
[2H]C([2H])([2H])c1ncc(S(=O)(=O)Nc2ccc(C)c3c(C#N)c[nH]c23)s1 [Compound 143, N-(3-cyano-4-methyl-1H-indol-7-yl)-2-(methyl-d3)thiazole-5-sulfonamide] | > 50 | less inhibition | 67 | –
Cc1ncc(S(=O)(=O)Nc2ccc(C)c3c(C#N)c[nH]c23)s1 [Compound 1, N-(3-cyano-4-methyl-1H-indol-7-yl)-2-methyl-thiazole-5-sulfonamide] | > 50 | less inhibition | 47 | 47.1
Cc1ccc(NS(=O)(=O)c2cccc(C#N)c2)c2[nH]cc(C#N)c12 [Compound E7820, E7820, reference compound] | 48.4 | – | 29 | 28.7
